# pIC50: −log10 of the molar value.
# System: HIV in the HTLV-1 transformed cell line MT-4
# Experiment: organism not typed
# Type: cell-based
# Conditions: MT4, 96 h, MT-4 cells; luciferase/cell titer glo readout after 96 hours; 10 point dose response
row,Structure (SMILES),pIC50
1,"COc1ccc(F)c(C(=O)N2Cc3c(C)c(-c4cc(F)c5c(c4C)CCCO5)c([C@H](OC(C)(C)C)C(=O)O)c(C)c3C2)c1 (atropisomer, axis not shown; (M)) [Example 179, (S)-2-(tert-butoxy)-2-((M)-2-(2-fluoro-5-methoxybenzoyl)-6-(8-fluoro-5-methylchroman-6-yl)-4,7-dimethylisoindolin-5-yl)acetic acid]",8.40
2,"COc1cc(C(=O)N2Cc3c(C)c(-c4cc(F)c5c(c4C)CCCO5)c([C@H](OC(C)(C)C)C(=O)O)c(C)c3C2)ccc1F (atropisomer, axis not shown; (M)) [Example 180, (S)-2-(tert-butoxy)-2-((M)-2-(4-fluoro-3-methoxybenzoyl)-6-(8-fluoro-5-methylchroman-6-yl)-4,7-dimethylisoindolin-5-yl)acetic acid]",8.40
3,"Cc1c(-c2c(C)c3c(c(C)c2[C@H](OC(C)(C)C)C(=O)O)CN(C(=O)c2cc(F)cc(Cl)c2)C3)cc(F)c2c1CCCO2 (atropisomer, axis not shown; (M)) [Example 181, (S)-2-(tert-butoxy)-2-((M)-2-(3-chloro-5-fluorobenzoyl)-6-(8-fluoro-5-methylchroman-6-yl)-4,7-dimethylisoindolin-5-yl)acetic acid]",8.30
4,"Cc1cncc(C(=O)N2Cc3c(C)c(-c4cc(F)c5c(c4C)CCCO5)c([C@H](OC(C)(C)C)C(=O)O)c(C)c3C2)c1 (atropisomer, axis not shown; (M)) [Example 182, (S)-2-(tert-butoxy)-2-((M)-6-(8-fluoro-5-methylchroman-6-yl)-4,7-dimethyl-2-(5-methylnicotinoyl)isoindolin-5-yl)acetic acid]",8.30
5,"COc1ccc(C)cc1C(=O)N1Cc2c(C)c(-c3cc(F)c4c(c3C)CCCO4)c([C@H](OC(C)(C)C)C(=O)O)c(C)c2C1 (atropisomer, axis not shown; (M)) [Example 183, (S)-2-(tert-butoxy)-2-((M)-6-(8-fluoro-5-methylchroman-6-yl)-2-(2-methoxy-5-methylbenzoyl)-4,7-dimethylisoindolin-5-yl)acetic acid]",8.40
6,"Cc1c(-c2c(C)c3c(c(C)c2[C@H](OC(C)(C)C)C(=O)O)CN(C(=O)c2ccccn2)C3)cc(F)c2c1CCCO2 (atropisomer, axis not shown; (M)) [Example 184, (S)-2-(tert-butoxy)-2-((M)-6-(8-fluoro-5-methylchroman-6-yl)-4,7-dimethyl-2-picolinoylisoindolin-5-yl)acetic acid]",8.70
7,"Cc1ccc(Cl)cc1C(=O)N1Cc2c(C)c(-c3cc(F)c4c(c3C)CCCO4)c([C@H](OC(C)(C)C)C(=O)O)c(C)c2C1 (atropisomer, axis not shown; (M)) [Example 185, (S)-2-(tert-butoxy)-2-((M)-2-(5-chloro-2-methylbenzoyl)-6-(8-fluoro-5-methylchroman-6-yl)-4,7-dimethylisoindolin-5-yl)acetic acid]",8.40
8,"Cc1c(-c2c(C)c3c(c(C)c2[C@H](OC(C)(C)C)C(=O)O)CN(C(=O)c2ccc(F)c(F)c2)C3)cc(F)c2c1CCCO2 (atropisomer, axis not shown; (M)) [Example 186, (S)-2-(tert-butoxy)-2-((M)-2-(3,4-difluorobenzoyl)-6-(8-fluoro-5-methylchroman-6-yl)-4,7-dimethylisoindolin-5-yl)acetic acid]",8.70
9,"COc1ccc(C(=O)N2Cc3c(C)c(-c4cc(F)c5c(c4C)CCCO5)c([C@H](OC(C)(C)C)C(=O)O)c(C)c3C2)cc1F (atropisomer, axis not shown; (M)) [Example 187, (S)-2-(tert-butoxy)-2-((M)-2-(3-fluoro-4-methoxybenzoyl)-6-(8-fluoro-5-methylchroman-6-yl)-4,7-dimethylisoindolin-5-yl)acetic acid]",8.52
10,"Cc1c(-c2c(C)c3c(c(C)c2[C@H](OC(C)(C)C)C(=O)O)CN(C(=O)c2cc(Cl)c(F)c(Cl)c2)C3)cc(F)c2c1CCCO2 (atropisomer, axis not shown; (M)) [Example 188, (S)-2-(tert-butoxy)-2-((M)-2-(3,5-dichloro-4-fluorobenzoyl)-6-(8-fluoro-5-methylchroman-6-yl)-4,7-dimethylisoindolin-5-yl)acetic acid]",8.40
11,"Cc1ccc(C(=O)N2Cc3c(C)c(-c4cc(F)c5c(c4C)CCCO5)c([C@H](OC(C)(C)C)C(=O)O)c(C)c3C2)c(C)c1 (atropisomer, axis not shown; (M)) [Example 189, (S)-2-(tert-butoxy)-2-((M)-2-(2,4-dimethylbenzoyl)-6-(8-fluoro-5-methylchroman-6-yl)-4,7-dimethylisoindolin-5-yl)acetic acid]",8.40
12,"Cc1ccc(C(=O)N2Cc3c(C)c(-c4cc(F)c5c(c4C)CCCO5)c([C@H](OC(C)(C)C)C(=O)O)c(C)c3C2)cc1 (atropisomer, axis not shown; (M)) [Example 190, (S)-2-(tert-butoxy)-2-((M)-6-(8-fluoro-5-methylchroman-6-yl)-4,7-dimethyl-2-(4-methylbenzoyl)isoindolin-5-yl)acetic acid]",8.30
13,"Cc1cc(C)cc(C(=O)N2Cc3c(C)c(-c4cc(F)c5c(c4C)CCCO5)c([C@H](OC(C)(C)C)C(=O)O)c(C)c3C2)c1 (atropisomer, axis not shown; (M)) [Example 191, (S)-2-(tert-butoxy)-2-((M)-2-(3,5-dimethylbenzoyl)-6-(8-fluoro-5-methylchroman-6-yl)-4,7-dimethylisoindolin-5-yl)acetic acid]",8.70
14,"COc1ccc(C(=O)N2Cc3c(C)c(-c4cc(F)c5c(c4C)CCCO5)c([C@H](OC(C)(C)C)C(=O)O)c(C)c3C2)cc1C (atropisomer, axis not shown; (M)) [Example 192, (S)-2-(tert-butoxy)-2-((M)-6-(8-fluoro-5-methylchroman-6-yl)-2-(4-methoxy-3-methylbenzoyl)-4,7-dimethylisoindolin-5-yl)acetic acid]",8.30
15,"Cc1cccc(C(=O)N2Cc3c(C)c(-c4cc(F)c5c(c4C)CCCO5)c([C@H](OC(C)(C)C)C(=O)O)c(C)c3C2)c1C (atropisomer, axis not shown; (M)) [Example 193, (S)-2-(tert-butoxy)-2-((M)-2-(2,3-dimethylbenzoyl)-6-(8-fluoro-5-methylchroman-6-yl)-4,7-dimethylisoindolin-5-yl)acetic acid]",8.30
16,"Cc1c(-c2c(C)c3c(c(C)c2[C@H](OC(C)(C)C)C(=O)O)CN(C(=O)c2cc(F)c(F)c(Cl)c2)C3)cc(F)c2c1CCCO2 (atropisomer, axis not shown; (M)) [Example 194, (S)-2-(tert-butoxy)-2-((M)-2-(3-chloro-4,5-difluorobenzoyl)-6-(8-fluoro-5-methylchroman-6-yl)-4,7-dimethylisoindolin-5-yl)acetic acid]",7.96
17,"COc1c(F)cccc1C(=O)N1Cc2c(C)c(-c3cc(F)c4c(c3C)CCCO4)c([C@H](OC(C)(C)C)C(=O)O)c(C)c2C1 (atropisomer, axis not shown; (M)) [Example 195, (S)-2-(tert-butoxy)-2-((M)-2-(3-fluoro-2-methoxybenzoyl)-6-(8-fluoro-5-methylchroman-6-yl)-4,7-dimethylisoindolin-5-yl)acetic acid]",8.52
18,"COc1ccc(C(=O)N2Cc3c(C)c(-c4cc(F)c5c(c4C)CCCO5)c([C@H](OC(C)(C)C)C(=O)O)c(C)c3C2)cc1 (atropisomer, axis not shown; (M)) [Example 196, (S)-2-(tert-butoxy)-2-((M)-6-(8-fluoro-5-methylchroman-6-yl)-2-(4-methoxybenzoyl)-4,7-dimethylisoindolin-5-yl)acetic acid]",8.70
19,"Cc1cccc(F)c1C(=O)N1Cc2c(C)c(-c3cc(F)c4c(c3C)CCCO4)c([C@H](OC(C)(C)C)C(=O)O)c(C)c2C1 (atropisomer, axis not shown; (M)) [Example 197, (S)-2-(tert-butoxy)-2-((M)-6-(8-fluoro-5-methylchroman-6-yl)-2-(2-fluoro-6-methylbenzoyl)-4,7-dimethylisoindolin-5-yl)acetic acid]",8.40
20,"Cc1c(-c2c(C)c3c(c(C)c2[C@H](OC(C)(C)C)C(=O)O)CN(C(=O)c2ccc(Cl)cc2)C3)cc(F)c2c1CCCO2 (atropisomer, axis not shown; (M)) [Example 198, (S)-2-(tert-butoxy)-2-((M)-2-(4-chlorobenzoyl)-6-(8-fluoro-5-methylchroman-6-yl)-4,7-dimethylisoindolin-5-yl)acetic acid]",8.30
21,"COc1ccccc1C(=O)N1Cc2c(C)c(-c3cc(F)c4c(c3C)CCCO4)c([C@H](OC(C)(C)C)C(=O)O)c(C)c2C1 (atropisomer, axis not shown; (M)) [Example 199, (S)-2-(tert-butoxy)-2-((M)-6-(8-fluoro-5-methylchroman-6-yl)-2-(2-methoxybenzoyl)-4,7-dimethylisoindolin-5-yl)acetic acid]",8.40
22,"COc1cc(C)ccc1C(=O)N1Cc2c(C)c(-c3cc(F)c4c(c3C)CCCO4)c([C@H](OC(C)(C)C)C(=O)O)c(C)c2C1 (atropisomer, axis not shown; (M)) [Example 200, (S)-2-(tert-butoxy)-2-((M)-6-(8-fluoro-5-methylchroman-6-yl)-2-(2-methoxy-4-methylbenzoyl)-4,7-dimethylisoindolin-5-yl)acetic acid]",7.96
23,"Cc1c(-c2c(C)c3c(c(C)c2[C@H](OC(C)(C)C)C(=O)O)CN(c2nnc(-c4cccc(F)c4)o2)C3)cc(F)c2c1CCCO2 (atropisomer, axis not shown; (M)) [Example 201, (S)-2-(tert-butoxy)-2-((M)-6-(8-fluoro-5-methylchroman-6-yl)-2-(5-(3-fluorophenyl)-1,3,4-oxadiazol-2-yl)-4,7-dimethylisoindolin-5-yl)acetic acid]",6.41
24,"Cc1c(-c2c(C)c3c(c(C)c2[C@H](OC(C)(C)C)C(=O)O)CN(c2nc4ccccc4o2)C3)cc(F)c2c1CCCO2 (atropisomer, axis not shown; (M)) [Example 202, (S)-2-((M)-2-(benzo[d]oxazol-2-yl)-6-(8-fluoro-5-methylchroman-6-yl)-4,7-dimethylisoindolin-5-yl)-2-(tert-butoxy)acetic acid]",6.91

# Reference: US10112899B2 (ViiV HEALTHCARE UK LIMITED, priority 2014, dated 2018)
